# Assay: Inhibition of C-south african HIV-1 protease assessed as hydrolysis of the chromogenic peptide substrate Lys-Ala-Arg-Val-Nle-p-nitro-Phe-Glu-Ala-Nle-NH2
# Design: species or system Human immunodeficiency virus 1
row,Structure (SMILES),IC50 [µM]
1,CC[C@H](C)[C@@H]1NC(=O)[C@H](C)NC(=O)[C@H](CCC(=O)O)NC(=O)C[C@@H](C2O[C@@H]3OC(C)(C)O[C@@H]3[C@H]2O)NC1=O (some centres not stated),2.62
2,CC[C@H](C)[C@@H]1NC(=O)[C@H](C)NC(=O)C[C@@H](C2O[C@@H]3OC(C)(C)O[C@@H]3[C@H]2O)NC(=O)[C@H](CO)NC1=O (some centres not stated),3
3,CC(C)[C@@H]1NC(=O)[C@H](Cc2ccccc2)NC(=O)C[C@@H](C2O[C@@H]3OC(C)(C)O[C@@H]3[C@H]2O)NC(=O)[C@H](C)NC1=O (some centres not stated),0.961
4,CC[C@H](C)[C@@H]1NC(=O)[C@H](C)NC(=O)C[C@@H](C2O[C@@H]3OC(C)(C)O[C@@H]3[C@H]2OCc2ccccc2)NC(=O)[C@H](COCc2ccccc2)NC1=O (some centres not stated),> 10
5,CC(C)[C@@H]1NC(=O)[C@H](Cc2ccccc2)NC(=O)C[C@@H](C2O[C@@H]3OC(C)(C)O[C@@H]3[C@H]2OCc2ccccc2)NC(=O)[C@H](C)NC1=O (some centres not stated),6.5
6,COC(=O)N[C@H](C(=O)N[C@@H](Cc1ccccc1)[C@@H](O)CN(Cc1ccc(-c2ccccn2)cc1)NC(=O)[C@@H](NC(=O)OC)C(C)(C)C)C(C)(C)C [ATAZANAVIR],0.004
7,Cc1cccc(C)c1OCC(=O)N[C@@H](Cc1ccccc1)[C@@H](O)C[C@H](Cc1ccccc1)NC(=O)[C@H](C(C)C)N1CCCNC1=O [LOPINAVIR],0.025

# Results, then the compound that gave them:
row,IC50 [µM],Structure (SMILES)
1,2.5,CC[C@H](C)[C@@H]1NC(=O)[C@H](C)NC(=O)[C@H](CCC(=O)OCc2ccccc2)NC(=O)C[C@@H](C2O[C@@H]3OC(C)(C)O[C@@H]3[C@H]2OCc2ccccc2)NC1=O (some centres not stated)
2,3.05,CC[C@H](C)[C@H](NC(=O)[C@H](C)NC(=O)[C@H](CCC(=O)O)NC(=O)C[C@H](N)C1O[C@@H]2OC(C)(C)O[C@@H]2[C@H]1O)C(=O)O (some centres not stated)
3,1.5,CC[C@H](C)[C@H](NC(=O)[C@H](C)NC(=O)C[C@H](N)C1O[C@@H]2OC(C)(C)O[C@@H]2[C@H]1O)C(=O)N[C@@H](CO)C(=O)O (some centres not stated)
4,1.1,CC(C)[C@H](NC(=O)[C@H](Cc1ccccc1)NC(=O)C[C@H](N)C1O[C@@H]2OC(C)(C)O[C@@H]2[C@H]1O)C(=O)N[C@@H](C)C(=O)O (some centres not stated)
5,3.5,CC[C@H](C)[C@H](NC(=O)[C@H](C)NC(=O)[C@H](CCC(=O)OCc1ccccc1)NC(=O)C[C@H](N)C1O[C@@H]2OC(C)(C)O[C@@H]2[C@H]1OCc1ccccc1)C(=O)O (some centres not stated)
6,> 10,CC[C@H](C)[C@H](NC(=O)[C@H](C)NC(=O)C[C@H](N)C1O[C@@H]2OC(C)(C)O[C@@H]2[C@H]1OCc1ccccc1)C(=O)N[C@@H](COCc1ccccc1)C(=O)O (some centres not stated)
7,1.33,CC(C)[C@H](NC(=O)[C@H](Cc1ccccc1)NC(=O)C[C@H](N)C1O[C@@H]2OC(C)(C)O[C@@H]2[C@H]1OCc1ccccc1)C(=O)N[C@@H](C)C(=O)O (some centres not stated)
8,5,CC[C@H](C)[C@H](NC(=O)[C@H](C)NC(=O)[C@H](CCC(=O)OCc1ccccc1)NC(=O)C[C@H](NCc1ccccc1)C1O[C@@H]2OC(C)(C)O[C@@H]2[C@H]1OCc1ccccc1)C(=O)O (some centres not stated)
9,> 10,CC[C@H](C)[C@H](NC(=O)[C@H](C)NC(=O)C[C@H](NCc1ccccc1)C1O[C@@H]2OC(C)(C)O[C@@H]2[C@H]1OCc1ccccc1)C(=O)N[C@@H](COCc1ccccc1)C(=O)O (some centres not stated)
10,2.38,CC(C)[C@H](NC(=O)[C@H](Cc1ccccc1)NC(=O)C[C@H](NCc1ccccc1)C1O[C@@H]2OC(C)(C)O[C@@H]2[C@H]1OCc1ccccc1)C(=O)N[C@@H](C)C(=O)O (some centres not stated)

# From ChEMBL document CHEMBL2311461, “Linear and cyclic glycopeptide as HIV protease inhibitors” (Eur J Med Chem, 2013)
